GI50 data for 30 molecules are collected here from EP4582423A1, “NOVEL TRICYCLIC DERIVATIVE COMPOUND AND USES THEREOF” (Hanmi Pharm. Co., Ltd., priority 2022, dated 2024).

For this assay, the system named is HCT116 MTAP-/- cells. In words: Cell growth inhibition test (SRB staining). The class given is cell-based. The following applies: Homo sapiens, HCT-116, 144 h; HCT116 MTAP-/- cells, 0.64 nM - 2,000 nM, 6 dose points, 6 days, SRB staining, absorbance at 540 nm; read-out: HCT116 MTAP-/- cell growth inhibition (GI50). As to the method: The synthetic compounds above were tested for cell growth inhibition against HCT116 cells.
HCT116 MTAP-/- (homozygous knockout of MTAP gene in HCT116 MTAP-WT cells by CRISPER/Cas9 method) cells were maintained in RPMI1640 medium containing 10 % FBS and 1 % penicillin-streptomycin. Approximately 5×10^2 cells were seeded in a 96-well plate and treated with a test compound. (0.64 nM - 2,000 nM, 6 dose points for HCT116 MTAP-/- cells for 5x and 6 days) cell growth was measured by SRB staining and absorbance was detected at 540 nm on a Synergy™ NEO microplate reader. The 50 % growth inhibition value (GI50) of the cell line was calculated using GraphPad Prism V9 software.
With `COc1ccc(Cc2nc3c(=O)n(-c4cccnc4)c4cc(Cl)ccc4c3n2C)cc1` [Compound 31, 7-chloro-2-(4-methoxybenzyl)-1-methyl-5-(pyridin-3-yl)-1,5-dihydro-4H-imidazo[4,5-c]quinolin-4-one], the GI50 was less than 100 nM. As for `COc1ccc(Cc2nc3c(=O)n(-c4ccc(F)cc4)c4cc(Cl)ccc4c3n2C)cc1` [Compound 32, 7-chloro-5-(4-fluorophenyl)-2-(4-methoxybenzyl)-1-methyl-1,5-dihydro-4H-imidazo[4,5-c]quinolin-4-one], the GI50 was more than 1000 nM. As for `Cc1ncccc1-n1c(=O)c2nc(Cc3ccc(OC(F)F)cc3)n(C)c2c2ccc(Cl)cc21` [Compound 33, 7-chloro-2-(4-(difluoromethoxy)benzyl)-1-methyl-5-(2-methylpyridin-3-yl)-1,5-dihydro-4H-imidazo[4,5-c]quinolin-4-one], the figure is less than 100 nM; as for `COc1ccc(Sc2nc3c(=O)n(-c4ccc(OC)cc4)c4cc(Cl)ccc4c3n2C)cc1` [Compound 34, 7-chloro-5-(4-methoxyphenyl)-2-((4-methoxyphenyl)thio)-1-methyl-1,5-dihydro-4H-imidazo[4,5-c]quinolin-4-one], more than 1000 nM. Then `COc1ccc(Sc2nc3c(=O)n(-c4cccnc4C)c4cc(Cl)ccc4c3n2C)cc1` [Compound 35, 7-chloro-2-((4-methoxyphenyl)thio)-1-methyl-5-(2-methylpyridin-3-yl)-1,5-dihydro-4H-imidazo[4,5-c]quinolin-4-one], with less than 100 nM; and `Cc1ncccc1-n1c(=O)c2nc(Sc3ccc(F)cc3)n(C)c2c2ccc(Cl)cc21` [Compound 36, 7-chloro-2-((4-fluorophenyl)thio)-1-methyl-5-(2-methylpyridin-3-yl)-1,5-dihydro-4H-imidazo[4,5-c]quinolin-4-one], with less than 100 nM. With `Cc1ncccc1-n1c(=O)c2nc(Sc3ccc(F)c(F)c3)n(C)c2c2ccc(Cl)cc21` [Compound 37, 7-chloro-2-((3,4-difluorophenyl)thio)-1-methyl-5-(2-methylpyridin-3-yl)-1,5-dihydro-4H-imidazo[4,5-c]quinolin-4-one], the GI50 was less than 100 nM. On to `Cc1ncccc1-n1c(=O)c2nc(Sc3ccc4c(c3)OCO4)n(C)c2c2ccc(Cl)cc21` [Compound 38, 2-(benzo[d][1,3]dioxol-5-ylthio)-7-chloro-1-methyl-5-(2-methylpyridin-3-yl)-1,5-dihydro-4H-imidazo[4,5-c]quinolin-4-one], for which the GI50 is less than 100 nM. As for `Cc1ncccc1-n1c(=O)c2nc(Sc3ccc(F)cc3F)n(C)c2c2ccc(Cl)cc21` [Compound 39, 7-chloro-2-((2,4-difluorophenyl)thio)-1-methyl-5-(2-methylpyridin-3-yl)-1,5-dihydro-4H-imidazo[4,5-c]quinolin-4-one], the figure is less than 100 nM; as for `COc1ccc(Nc2nc3c(=O)n(-c4ccccc4)c4cc(Cl)ccc4c3n2C)cc1` [Compound 40, 7-chloro-2-((4-methoxyphenyl)amino)-1-methyl-5-phenyl-1,5-dihydro-4H-imidazo[4,5-c]quinolin-4-one], more than 1000 nM. Then `COc1ccc(N(C)c2nc3c(=O)n(-c4ccccc4)c4cc(Cl)ccc4c3n2C)cc1` [Compound 41, 7-chloro-2-((4-methoxyphenyl)(methyl)amino)-1-methyl-5-phenyl-1,5-dihydro-4H-imidazo[4,5-c]quinolin-4-one], with more than 1000 nM; and `COc1ccc(Oc2nc3c(=O)n(-c4ccccc4)c4cc(Cl)ccc4c3n2C)cc1` [Compound 42, 7-chloro-2-(4-methoxyphenoxy)-1-methyl-5-phenyl-1,5-dihydro-4H-imidazo[4,5-c]quinolin-4-one], with more than 1000 nM; and `COc1ccc(Cc2nc3c(=O)n(-c4cccnc4C)c4cc(O)ccc4c3n2C)cc1` [Compound 43, 7-Hydroxy-2-(4-methoxybenzyl)-1-methyl-5-(2-methylpyridin-3-yl)-1,5-dihydro-4H-imidazo[4,5-c]quinolin-4-one], with more than 1000 nM.

On to `C=Cc1ccc2c3c(nc(Cc4ccc(OC)cc4)n3C)c(=O)n(-c3cccnc3C)c2c1` [Compound 44, 2-(4-methoxybenzyl)-1-methyl-5-(2-methylpyridin-3-yl)-7-vinyl-1,5-dihydro-4H-imidazo[4,5-c]quinolin-4-one], for which the GI50 was less than 100 nM.

Consider `CCc1ccc2c3c(nc(Cc4ccc(OC)cc4)n3C)c(=O)n(-c3cccnc3C)c2c1` [Compound 45, 7-Ethyl-2-(4-methoxybenzyl)-1-methyl-5-(2-methylpyridin-3-yl)-1,5-dihydro-4H-imidazo[4,5-c]quinolin-4-one], for which the GI50 was less than 100 nM. For `COc1ccc(Cc2nc3c(=O)n(-c4cccnc4C)c4cc(C5CC5)ccc4c3n2C)cc1` [Compound 46, 7-Cyclopropyl-2-(4-methoxybenzyl)-1-methyl-5-(2-methylpyridin-3-yl)-1,5-dihydro-4H-imidazo[4,5-c]quinolin-4-one], the GI50 was less than 100 nM. `C#Cc1ccc2c3c(nc(Cc4ccc(OC)cc4)n3C)c(=O)n(-c3cccnc3C)c2c1` [Compound 47, 7-ethynyl-2-(4-methoxybenzyl)-1-methyl-5-(2-methylpyridin-3-yl)-1,5-dihydro-4H-imidazo[4,5-c]quinolin-4-one]: the GI50 is less than 100 nM. In the case of `COc1ccc(Cc2nc3c(=O)n(-c4cccnc4C)c4cc(C(C)C)ccc4c3n2C)cc1` [Compound 48, 7-isopropyl-2-(4-methoxybenzyl)-1-methyl-5-(2-methylpyridin-3-yl)-1,5-dihydro-4H-imidazo[4,5-c]quinolin-4-one], the GI50 is 100 to 500 nM. Then `COc1ccc(Cc2nc3c(=O)n(-c4cccnc4C)c4cc(C)ccc4c3n2C)cc1` [Compound 49, 2-(4-methoxybenzyl)-1,7-dimethyl-5-(2-methylpyridin-3-yl)-1,5-dihydro-4H-imidazo[4,5-c]quinolin-4-one], with 100 to 500 nM; and `COc1ccc(Cc2nc3c(=O)n(-c4cccnc4C)c4cc(N5CCCC5)ccc4c3n2C)cc1` [Compound 50, 2-(4-methoxybenzyl)-1-methyl-5-(2-methylpyridin-3-yl)-7-(pyrrolidin-1-yl)-1,5-dihydro-4H-imidazo[4,5-c]quinolin-4-one], with more than 1000 nM. Then `COc1ccc(Cc2nc3c(=O)n(-c4cccnc4C)c4cc(OC)ccc4c3n2C)cc1` [Compound 51, 7-methoxy-2-(4-methoxybenzyl)-1-methyl-5-(2-methylpyridin-3-yl)-1,5-dihydro-4H-imidazo[4,5-c]quinolin-4-one], with less than 100 nM. As for `COc1ccc(Cc2nc3c(=O)n(-c4cccnc4C)c4cc(N)ccc4c3n2C)cc1` [Compound 52, 7-amino-2-(4-methoxybenzyl)-1-methyl-5-(2-methylpyridin-3-yl)-1,5-dihydro-4H-imidazo[4,5-c]quinolin-4-one], the figure is 500 to 1000 nM; as for `CNc1ccc2c3c(nc(Cc4ccc(OC)cc4)n3C)c(=O)n(-c3cccnc3C)c2c1` [Compound 53, 2-(4-methoxybenzyl)-1-methyl-7-(methylamino)-5-(2-methylpyridin-3-yl)-1,5-dihydro-4H-imidazo[4,5-c]quinolin-4-one], less than 100 nM; as for `CCc1ccc2c3c(nc(Cc4ccc(OC(F)F)cc4)n3C)c(=O)n(-c3cccnc3C)c2c1` [Compound 54, 2-(4-(difluoromethoxy)benzyl)-7-ethyl-1-methyl-5-(2-methylpyridin-3-yl)-1,5-dihydro-4H-imidazo[4,5-c]quinolin-4-one], less than 100 nM. With `COc1ccc2c3c(nc(Cc4ccc(OC(F)F)cc4)n3C)c(=O)n(-c3cccnc3C)c2c1` [Compound 55, 2-(4-(Difluoromethoxy)benzyl)-7-methoxy-1-methyl-5-(2-methylpyridin-3-yl)-1,5-dihydro-4H-imidazo[4,5-c]quinolin-4-one], the GI50 was less than 100 nM. As for `COc1ccc(Cc2nc3c(=O)n(-c4ccc(OC(F)F)cc4)c4nc(C(F)(F)F)ccc4c3n2C)cc1` [Compound 56, 5-(4-(Difluoromethoxy)phenyl)-2-(4-methoxybenzyl)-1-methyl-7-(trifluoromethyl)-1,5-dihydro-4H-imidazo[4,5-c][1,8]naphthyridin-4-one], the figure is more than 1000 nM. As for `COc1ccc(Cc2nc3c(=O)n(-c4cccnc4C)c4nc(C(F)(F)F)ccc4c3n2C)cc1` [Compound 57, 2-(4-methoxybenzyl)-1-methyl-5-(2-methylpyridin-3-yl)-7-(trifluoromethyl)-1,5-dihydro-4H-imidazo[4,5-c][1,8]naphthyridin-4-one], the figure is less than 100 nM; as for `Cc1ncccc1-n1c(=O)c2nc(Cc3ccc(OC(F)F)cc3)n(C)c2c2ccc(C(F)(F)F)nc21` [Compound 58, 2-(4-(Difluoromethoxy)benzyl)-1-methyl-5-(2-methylpyridin-3-yl)-7-(trifluoromethyl)-1,5-dihydro-4H-imidazo[4,5-c][1,8]naphthyridin-4-one], less than 100 nM; as for `COc1ccc(Sc2nc3c(=O)n(-c4cccnc4C)c4nc(C(F)(F)F)ccc4c3n2C)cc1` [Compound 59, 2-((4-methoxyphenyl)thio)-1-methyl-5-(2-methylpyridin-3-yl)-7-(trifluoromethyl)-1,5-dihydro-4H-imidazo[4,5-c][1,8]naphthyridin-4-one], less than 100 nM. Regarding `Cc1ncccc1-n1c(=O)c2nc(Sc3ccc(F)cc3)n(C)c2c2ccc(C(F)(F)F)nc21` [Compound 60, 2-((4-fluorophenyl)thio)-1-methyl-5-(2-methylpyridin-3-yl)-7-(trifluoromethyl)-1,5-dihydro-4H-imidazo[4,5-c][1,8]naphthyridin-4-one], the GI50 was 100 to 500 nM.
